Measured values reported in article PMC9436958, “The synthesis of novel thioderivative chalcones and their influence on NF-κB, STAT3 and NRF2 signaling pathways in colorectal cancer cells” (Scientific Reports, 2022).

Experiments:
[1] = MTT viability assay, normal HaCaT cells; type: cell-based; details: HaCaT cells (spontaneously immortalized keratinocytes), normal human HaCaT cells, read-out: IC50, cytotoxicity
Protocol: (§1) The DLD-1 and HCT116 colorectal carcinoma cell lines were purchased from ECACC. The HaCaT cell line of spontaneously immortalized keratinocytes was purchased from Cell Lines Service (Germany). The cells were cultured in Dulbecco’s Modified Eagle’s Medium (DMEM, Sigma-Aldrich, USA) with the addition of 10% FBS (EURx, Poland) and 1% antibiotic solution (penicillin and streptomycin) (Sigma-Aldrich, USA) at 37 °C in an atmosphere with 95% humidity and 5% CO2.
(§2) The effect of the tested compounds on the viability of DLD-1, HCT116 and HaCaT cells was assessed by the MTT assay according to the standard protocol.

NF-κB p50 = test: Transcription factor ELISA, NF-κB p50 binding to DNA; type: cell-based; details: DLD-1 cells; 1, 4 at 1 μM; 2, 3, 5-8 at 5 μM; in relation to the control group
Protocol: (§3) To estimate NF-ΚB (p50 and p65 subunits) STAT3 and Nrf2 activation, enzymatic immunoassays with the Transcription Factor ELISA Kit (TransAM™NF-κB, TransAM™STAT3/TransAM™Nrf2, Active Motif, Carlsbad CA, USA) were used following the manufacturer’s protocol. Briefly, proper consensus-site double-strand oligonucleotides (NF-κB—5′-GGGACTTTCC-3′; STAT3-5’—TTCCCGGAA-3’; Nrf2-5ʹ—[…]-3ʹ) were immobilized on an ELISA plate and incubated for one hour with the nuclear extracts. The activated subunits bound to DNA were recognized with a specific primary antibody and detected with an HRP-conjugated secondary antibody. The number of subunits was determined by spectrophotometry at λ = 450 nm. The number of p50, and p65 subunits, STAT3, as well as the amount of Nrf2 contained in the DNA-binding complex, corresponded to the activated NF-κB, STAT3, or Nrf2 transcription factors.

p-Nrf2 = test: Western blot, p-Nrf2 protein in nuclear fraction; type: cell-based; details: HCT116 line; 5 μM
Protocol: (§4) Cytosolic and nuclear extracts were prepared using a Nuclear/Cytosol Fractionation Kit (BioVision Research, USA). Cytosolic extracts (for NF-κBp65, NF-κBp50, COX-2, iNOS, STAT3, c-Myc, Bcl-xl, Nrf2, SOD, GSTP, EGFR, Akt, p-Akt, Keap1, IKKα/β and β-actin) or nuclear extracts (for NF-κBp65, NF-κBp50, STAT3, p-STAT3, Nrf2, p-Nrf2 and lamin) were separated on 7.5%, 10% or 12% SDS–PAGE slab gels. Then, the proteins were transferred to a nitrocellulose Immobilon-P membrane. After blocking for 2 h with 10% skimmed milk, proteins were incubated with primary antibodies against NF-κBp65, NF-κBp50, COX-2, iNOS, STAT3, p-STAT3, c-Myc, Bcl-xl, Nrf2, p-Nrf2, SOD, GSTP, EGFR, Akt, p-Akt, Keap1, IKKα/β, β-actin, and lamin. Alkaline phosphatase (AP)-labeled anti-rabbit IgG, anti-goat IgG, and anti-mouse IgG secondary antibodies (Bio-Rad Laboratories, USA), as well as horseradish peroxidase (HRP)-conjugated anti-mouse IgG (Boster Bio, USA) secondary antibodies were used in the staining reaction. Bands were visualized by the AP Conjugate Substrate Kit NBT/BCIP or the chemiluminescent HRP substrate of the Clarity ECL Kit (Bio–Rad Laboratories, USA). The amount of immunoreactive product in each lane was determined using a ChemiDoc Imaging System (Bio–Rad Laboratories, USA). Values were calculated as relative absorbance units (RQ) per mg of protein and expressed as a percentage of the control.

NF-κB p65 [2] = test: qRT-PCR, NF-κB p65 mRNA; type: cell-based; details: for inhibitory effect on p65 subunit transcription: DLD-1 cells, 5 μM
Protocol: (§5) Total RNA from cells was isolated with the GeneMatrix Universal DNA/RNA/Protein Purification Kit (EurX, Poland). For the qRT-PCR analyses, the Maxima SYBR Green I/ROX qPCR Master Mix (2×) (Thermo Fisher Scientific, USA) and the thermal cycler LightCycler (Roche, Germany) were used. The protocol started with 5 min of enzyme activation at 95 °C, followed by 40–50 cycles at 95 °C for 15 s, 56 °C for 20 s, 72 °C for 40 s, and final elongation at 72 °C for 5 min. Melting curve analysis was used for amplicon verification. The expression levels of TATA-box-binding protein (TBP) and porphobilinogen deaminase (PBGD) were used to normalize the data. The Pfaffl comparative method was used to calculate fold change. Primers were designed using Beacon Designer software (the sequences of primers used to analyze genes are listed in Table 2 of the supplementary materials).

SOD = SOD expression (qRT-PCR mRNA, Western blot protein); type: cell-based; details: HCT116 cells; 5 μM
Protocol: as §4
as §5, with “Primers were designed using Beacon Designer software (the sequences of primers used to analyze genes are listed in Table 2 of the supplementary materials).” left out

Nrf2 = test: Transcription factor ELISA, Nrf2 binding to DNA; type: cell-based
Protocol: as §3

DLD-1 cells = test: MTT viability assay, DLD-1 cells; type: cell-based; details: Homo sapiens, range 0.5–100 µM, read-out: IC50, cytotoxicity
Protocol: as §1, §2

HCT116 cells = test: MTT viability assay, HCT116 cells; type: cell-based; details: Homo sapiens, HCT-116, range 0.5–100 µM, read-out: IC50, cytotoxicity
Protocol: as §1, §2

EGFR [3] = test system: EGFR; parameters: method as in BinidngDB; details: inhibitor of PDB ID 5UGB; ref BinidngDB; cited from earlier work
NF-κB p65 [4] = test: Transcription factor ELISA, NF-κB p65 binding to DNA; type: cell-based; details: DLD-1 cells (context); 1, 4 at 1 μM; 2, 8 at 5 μM; vs control
Protocol: as §3

COX-2 = COX-2 expression (qRT-PCR mRNA, Western blot protein); type: cell-based; details: 4 at 1 μM; for COX-2 transcription: DLD-1 cells, 3, 6 at 5 μM
Protocol: as §4, §5

Bcl-xl = Bcl-xl expression (qRT-PCR mRNA, Western blot protein); type: cell-based; details: DLD-1 cells; 2 at 5 μM
Protocol: as §4, §5

p-Akt = test: Western blot, p-Akt (Ser 473) protein in cytosolic fraction; type: cell-based; details: 2, 5 at 5 μM, 4 at 1 μM
Protocol: as §4

STAT3 [5] = test: qRT-PCR, STAT3 mRNA; type: cell-based; details: DLD-1 cells; 2, 5 at 5 μM, 4 at 1 μM
Protocol: as §5

EGFR [6] = test: Western blot, EGFR protein in cytosolic fraction; type: cell-based; details: DLD-1 cells; 2, 5 at 5 μM, 4 at 1 μM
Protocol: as §4

STAT3 [7] = test: Transcription factor ELISA, STAT3 binding to DNA; type: cell-based; details: 2, 5 at 5 μM, 4 at 1 μM
Protocol: as §3

STAT3 [8] = test: Western blot, STAT3 protein level; type: cell-based; details: DLD-1 cells; 2 at 5 μM, 4 at 1 μM
Protocol: as §4

c-Myc = c-Myc expression (qRT-PCR mRNA, Western blot protein); type: cell-based; details: DLD-1 cells; 2 at 5 μM
Protocol: as §4, with “control. […]” for “control.”

AKT = test system: AKT; parameters: method as in BinidngDB; details: inhibitor of PDB ID 4GV1; ref BinidngDB; cited from earlier work
[9] = DLD-1 cells, 1 at 1 μM, 3, 5, 7, 8 at 5 μM
[10] = HCT116 cells, 4 at 1 μM, 2, 5, 6, 7 at 5 μM

Row | Compound | IC50 [1] | Nrf2 binding to a specific nucleotide sequence (ELISA) (Nrf2; [9]) | Nrf2 binding to a specific nucleotide sequence (ELISA) (Nrf2; [10]) | IC50 (DLD-1 cells) | IC50 (HCT116 cells) | reduction of the binding of the p65 subunit to DNA (NF-κB p65 [4]) | further results
1 | COc1cc(C(=O)/C=C/c2ccc(SC)cc2)cc(Br)c1SC [chalcone 7] | 27 µM | statistically significant increase | statistically significant increase | 43 µM | 19 µM |  | decrease of p50 binding to the 5'-GGGACTTTCC-3' target sequence (NF-κB p50): 41%; increase in the nuclear level of p-Nrf2 (p-Nrf2): 80%; inhibitory effect on p65 subunit transcription (NF-κB p65 [2]): most potent inhibitory effect; levels of SOD mRNA and protein (SOD): increased levels of SOD mRNA and protein
3 | COc1ccc(/C=C/C(=O)c2cc(OC)c(SC)c(OC)c2)cc1SC [chalcone 8] | 17 µM | statistically significant increase |  | 9 µM | 19 µM | 38% | decrease of p65 transcription (NF-κB p65 [2]; HCT116 cells, 8 at 5 μM, compared to the control group): 30%
4 | COc1ccc(/C=C/C(=O)c2cc(Br)c(SC)c(OC)c2)cc1SC [chalcone 6] | 13 µM |  | statistically significant increase | 12 µM | 21 µM |  | increase in the nuclear level of p-Nrf2 (p-Nrf2): 52%; COX-2 transcription (COX-2): statistically significant reduction; levels of SOD mRNA and protein (SOD): increased levels of SOD mRNA and protein
5 | COc1ccc(/C=C/C(=O)c2cc(OC)c(OC)c(OC)c2)cc1SC [chalcone 1] | 4 µM | statistically significant increase |  | 3 µM | 19 µM | 21% | 
6 | COc1cc(/C=C/C(=O)c2cc(Br)c(OC)c(OC)c2)ccc1SC [chalcone 2] | 13 µM |  | statistically significant increase | 11 µM | 18 µM | 24% | Bcl-xl protein level (Bcl-xl): reduced level of the Bcl-xl protein; decrease in the level of Bcl-xl mRNA (Bcl-xl): 25%; phosphorylation of p-Akt (Ser 473) (p-Akt; DLD-1 cells): significantly reduced phosphorylation of p-Akt; phosphorylation of p-Akt (Ser 473) (p-Akt; HCT116 cells): significantly reduced phosphorylation of p-Akt; STAT3 gene expression (mRNA) (STAT3 [5]): decreased; inhibitory effect on p65 subunit transcription (NF-κB p65 [2]): most potent inhibitory effect; level of EGFR (EGFR [6]): significantly decreased the level of EGFR; COX-2 expression, protein level (COX-2; HCT116 cells, 2 at 5 μM): reduction of COX-2 expression; COX-2 expression, transcript level (COX-2; HCT116 cells, 2 at 5 μM): reduction of COX-2 expression; binding of STAT3 to DNA (STAT3 [7]; HCT116 cells): decreased the binding of STAT3 to DNA; decrease in the binding of STAT3 to DNA (STAT3 [7]; nuclear fraction of DLD-1 cells): 25%; decrease in the nuclear level of STAT3 protein (STAT3 [8]): 22%; c-Myc expression (c-Myc): decreased c-Myc expression
7 | COc1ccc(/C=C/C(=O)c2cc(Br)c(OC)c(OC)c2)cc1SC [chalcone 3] | 9 µM | statistically significant increase |  | 8 µM | 17 µM |  | COX-2 transcription (COX-2): statistically significant reduction
8 | NC1(C(=O)N[C@@H](CCO)c2ccc(Cl)cc2)CCN(c2ncnc3[nH]ccc23)CC1 [AZD5363] |  |  |  |  |  |  | IC50 (AKT): 0.0042 µM
